Test results taken from US8044053B2, “Sulfonamide substituted pyrazoline compounds, their preparation and use as CB1 modulators” (Laboratories del Dr. Esteve, S.A., priority 2006, dated 2011).
Counter-ions that a name gives are not always drawn.

Target: CB1-receptor (UniProt P20272)
Assay: In-vitro determination of affinity (binding) to CB1-receptors, radioligand [3H]-CP55940
Set-up: IC50; Ki; species or system human or rat
Details: Pharmacological Methods Part I
Procedure: I. In-Vitro Determination of Affinity to CB1/CB2-Receptors
The in-vitro determination of the affinity of the inventive substituted pyrazoline compounds to CB1/CB2-Rezeptors is carried out as described in the publication of Ruth A. Ross, Heather C. Brockie et al., “Agonist-inverse agonist characterisation at CB1 and CB2 cannabinoid receptors of L-759633, L759656 and AM630”, British Journal of Pharmacology, 126, 665-672, (1999), whereby the transfected human CB1 and CB2 receptors of Receptor Biology, Inc. are used. The radioligand used for both receptors is [^3H]-CP55940. The respective parts of the description is hereby incorporated by reference and forms part of the present disclosure.
Rat Cerebellum CB1 Binding
Binding affinity to CB1 receptor was evaluated according to a modification of the method described by Govaerts et al., Eur J Pharmac Sci 23, 233-243 (2004). The respective parts of the description is hereby incorporated by reference and forms part of the present disclosure.
Briefly, cerebellum from male wistar rats (250-300 g) were carefully dissected on ice and homogenates were prepared with Potter-Helveheim in a cold 50 mM Tris-HCl solution containing 5 mM MgCl2, 1 mM EDTA and 0.25 M sucrose, pH 7.4. The suspension was centrifuged at 1,000×g for 5 minutes. The supernatants were collected and centrifuged 50,000×g for 15 minutes. The resulting pellets were then resuspended in Tris-HCl buffer without sucrose, homogenised and incubated for 15 min at 37° C. in an orbital shaker bath and centrifuged again at 50,000×g for 15 min. Pellets were weighted, resuspended in Tris-HCl buffer without sucrose, homogenised with Ultraturrax at 13,500 rpm for 3×5 seconds and alicuoted in 0.9 ml volumes in Eppendorf tubes. Alicuotes were centrifuged at 20,800×g for 5 minutes, supernatants discarded and pellets were frozen at −80° C. until use. Total protein concentration was determined using the Bio-Rad Lowry method based kit. Competitive binding experiments were performed in presence of 1 nM [^3H]-CP 55,940 in siliconised glass tubes containing 100 μg protein/tube resuspended in 1 ml final volume of 50 mM Tris-HCl, 5 mM MgCl2, 1 mM EDTA, 0.5% (w/v) bovine serum albumin, pH 7.4. Compounds were present at various concentrations and the non specific binding was determined in the presence of 10 μM HU-210. After 1 hour incubation at 30° C., the suspension was rapidly filtered through 0.5% PEI pre-treated GF/B fiber filters on a 96-well harvester and washed 3 times with 3 ml ice-cold binding buffer without bovine serum albumin. Radioactivity on filters was measured with Wallac Winspectral 1414 counter by liquid scintillation in 6 ml Ecoscint H (National Diagnostics, U.K.). Assays were made in triplicates.
Binding data were analysed by non-linear regression with the software GraphPad Prism Version 3.03.
The binding of the pyrazoline compounds of general formulae I, Ia and Ib to CB1-receptors was determined according to the method described in the section Pharmacological Methods, Part I.

Row | IC50 | Ki | Structure (SMILES)
1 | 9.8 nM | 9.8 nM | CCOc1ccc(C2CC(CNS(=O)(=O)c3cccc(F)c3)=NN2c2ccc(Cl)cc2Cl)cc1 (stereo not shown) [Example 261, N-[1-(2,4-Dichloro-phenyl)-5-(4-ethoxy-phenyl)-4,5-dihydro-1H-pyrazol-3-ylmethyl]-3-fluoro-benzenesulfonamide]
2 | 90.1 nM | 39.7 nM | COc1ccc(C2CC(CNS(=O)(=O)c3cccc(Cl)c3)=NN2c2ccc(Cl)cc2Cl)cc1 (stereo not shown) [Example 225, 3-Chloro-N-[1-(2,4-dichloro-phenyl)-5-(4-methoxy-phenyl)-4,5-dihydro-1H-pyrazol-3-ylmethyl]-benzenesulfonamide]
3 | 88.9 nM | 38.3 nM | O=S(=O)(NCC1=NN(c2ccc(Cl)cc2Cl)[C@@H](c2ccc(Cl)cc2)C1)c1ccccc1 [Example 194, (R)-N-[5-(4-Chloro-phenyl)-1-(2,4-dichloro-phenyl)-4,5-dihydro-1H-pyrazol-3-ylmethyl]-benzenesulfonamide]
4 | 28.5 nM | 11.9 nM | O=S(=O)(NCC1=NN(c2ccc(Cl)cc2Cl)[C@@H](c2ccc(Cl)cc2)C1)c1cc(Cl)ccc1F [Example 106, (R)-5-Chloro-N-[5-(4-chloro-phenyl)-1-(2,4-dichloro-phenyl)-4,5-dihydro-1H-pyrazol-3-ylmethyl]-2-fluoro-benzenesulfonamide]
5 | 74 nM | 33 nM | COc1ccc(C2CC(CNS(=O)(=O)c3cc(Cl)ccc3F)=NN2c2ccc(Cl)cc2Cl)cc1 (stereo not shown) [Example 94, 5-Chloro-N-[1-(2,4-dichloro-phenyl)-5-(4-methoxy-phenyl)-4,5-dihydro-1-pyrazol-3-ylmethyl]-2-fluoro-benzenesulfonamide]
6 | 12.8 nM | 5.6 nM | CCOc1ccc(C2CC(CNS(=O)(=O)c3cc(C(F)(F)F)ccc3Cl)=NN2c2ccc(Cl)cc2Cl)cc1 (stereo not shown) [Example 101, 2-Chloro-N-[1-(2,4-dichloro-phenyl)-5-(4-ethoxy-phenyl)-4,5-dihydro-1H-pyrazol-3-ylmethyl]-5-trifluoromethyl-benzenesulfonamide]
7 | 40 nM | 16.9 nM | O=S(=O)(NCC1=NN(c2ccc(Cl)cc2Cl)C(c2ccc(Cl)cc2)C1)c1ccccc1Br (stereo not shown) [Example 136, 2-Bromo-N-[5-(4-chloro-phenyl)-1-(2,4-dichloro-phenyl)-4,5-dihydro-1H-pyrazol-3-ylmethyl]-benzenesulfonamide]
8 | 10.2 nM | 4.4 nM | CCOc1ccc(C2CC(CNS(=O)(=O)c3cccc(C#N)c3)=NN2c2ccc(Cl)cc2Cl)cc1 (stereo not shown) [Example 271, 3-Cyano-N-[1-(2,4-dichloro-phenyl)-5-(4-ethoxy-phenyl)-4,5-dihydro-1H-pyrazol-3-ylmethyl]-benzenesulfonamide]
9 | 7.2 nM | 3 nM | CCOc1ccc(C2CC(CNS(=O)(=O)c3cc(F)ccc3C)=NN2c2ccc(Cl)cc2Cl)cc1 (stereo not shown) [Example 102, N-[1-(2,4-Dichloro-phenyl)-5-(4-ethoxy-phenyl)-4,5-dihydro-1H-pyrazol-3-ylmethyl]-5-fluoro-2-methyl-benzenesulfonamide]
10 | 5.6 nM | 2.4 nM | CCOc1ccc(C2CC(CNS(=O)(=O)c3ccccc3Br)=NN2c2ccc(Cl)cc2Cl)cc1 (stereo not shown) [Example 249, 2-Bromo-N-[1-(2,4-dichloro-phenyl)-5-(4-ethoxy-phenyl)-4,5-dihydro-1H-pyrazol-3-ylmethyl]-benzenesulfonamide]
11 | 39.7 nM | 16.6 nM | CCOc1ccc(C2CC(CNS(=O)(=O)c3cccc(Cl)c3F)=NN2c2ccc(Cl)cc2Cl)cc1 (stereo not shown) [Example 250, 3-Chloro-N-[1-(2,4-dichloro-phenyl)-5-(4-ethoxy-phenyl)-4,5-dihydro-1H-pyrazol-3-ylmethyl]-2-fluoro-benzenesulfonamide]
12 | 15.2 nM | 6.9 nM | O=S(=O)(NCC1=NN(c2ccc(Cl)cc2Cl)C(c2ccc(Cl)cc2)C1)c1cc(C(F)(F)F)ccc1Cl (stereo not shown) [Example 81, 2-Chloro-N-[5-(4-chloro-phenyl)-1-(2,4-dichloro-phenyl)-4,5-dihydro-1H-pyrazol-3-ylmethyl]-5-trifluoromethyl-benzenesulfonamide]
13 | 65.5 nM | 27.7 nM | CCOc1ccc(C2CC(CNS(=O)(=O)c3cc(C)c(Cl)cc3C)=NN2c2ccc(Cl)cc2Cl)cc1 (stereo not shown) [Example 247, 4-Chloro-N-[1-(2,4-dichloro-phenyl)-5-(4-ethoxy-phenyl)-4,5-dihydro-1H-pyrazol-3-ylmethyl]-2,5-dimethyl-benzenesulfonamide]
14 | 69 nM | 30.8 nM | COc1ccc(C2CC(CNS(=O)(=O)c3ccccc3Cl)=NN2c2ccc(Cl)cc2Cl)cc1 (stereo not shown) [Example 217, 2-Chloro-N-[1-(2,4-dichloro-phenyl)-5-(4-methoxy-phenyl)-4,5-dihydro-1H-pyrazol-3-ylmethyl]-benzenesulfonamide]
15 | 88.2 nM | 43.2 nM | O=S(=O)(NCC1=NN(c2ccc(Cl)cc2Cl)C(c2ccc(Cl)cc2)C1)c1cccnc1 (stereo not shown) [Example 53, Pyridine-3-sulfonic acid [5-(4-chloro-phenyl)-1-(2,4-dichloro-phenyl)-4,5-dihydro-1H-pyrazol-3-ylmethyl]-amide hydrochloride]
16 | 50.5 nM | 21.4 nM | Cc1ccc(C)c(S(=O)(=O)NCC2=NN(c3ccc(Cl)cc3Cl)[C@@H](c3ccc(Cl)cc3)[C@H]2C)c1 (racemic) [Example 83, cis-(4RS,5RS)-N-[5-(4-Chloro-phenyl)-1-(2,4-dichloro-phenyl)-4-methyl-4,5-dihydro-1H-pyrazol-3-ylmethyl]-2,5-dimethyl-benzenesulfonamide]
17 | 30.8 nM | 12.8 nM | CCOc1ccc(C2CC(CNS(=O)(=O)c3cc(Cl)ccc3F)=NN2c2ccc(Cl)cc2Cl)cc1 (stereo not shown) [Example 100, 5-Chloro-N-[1-(2,4-dichloro-phenyl)-5-(4-ethoxy-phenyl)-4,5-dihydro-1H-pyrazol-3-ylmethyl]-2-fluoro-benzenesulfonamide]
18 | 43.9 nM | 18.4 nM | COc1ccc(C2CC(CNS(=O)(=O)c3cc(C)ccc3C)=NN2c2ccc(Cl)cc2Cl)cc1 (stereo not shown) [Example 97, N-[1-(2,4-Dichloro-phenyl)-5-(4-methoxy-phenyl)-4,5-dihydro-1H-pyrazol-3-ylmethyl]-2,5-dimethyl-benzenesulfonamide]
19 | 17.9 nM | 7.6 nM | CCOc1ccc(C2CC(CNS(=O)(=O)c3cccc(Cl)c3Cl)=NN2c2ccc(Cl)cc2Cl)cc1 (stereo not shown) [Example 248, 2,3-Dichloro-N-[1-(2,4-dichloro-phenyl)-5-(4-ethoxy-phenyl)-4,5-dihydro-1H-pyrazol-3-ylmethyl]-benzenesulfonamide]
20 | 11.8 nM | 5.3 nM | Cc1ccc(F)cc1S(=O)(=O)NCC1=NN(c2ccc(Cl)cc2Cl)[C@@H](c2ccc(Cl)cc2)[C@H]1C (racemic) [Example 73, cis-(4RS,5RS)-N-[5-(4-Chloro-phenyl)-1-(2,4-dichloro-phenyl)-4-methyl-4,5-dihydro-1H-pyrazol-3-ylmethyl]-5-fluoro-2-methyl-benzenesulfonamide]
21 | 50.4 nM | 21 nM | Cc1ccc(F)cc1S(=O)(=O)NCC1=NN(c2ccc(Cl)cc2Cl)[C@@H](c2ccc(Cl)cc2)C1 [Example 63, (R)-N-[5-(4-Chloro-phenyl)-1-(2,4-dichloro-phenyl)-4,5-dihydro-1H-pyrazol-3-ylmethyl]-5-fluoro-2-methyl-benzenesulfonamide]
22 | 47.1 nM | 19.8 nM | CCOc1ccc(C2CC(CNS(=O)(=O)c3ccccc3F)=NN2c2ccc(Cl)cc2Cl)cc1 (stereo not shown) [Example 98, N-[1-(2,4-Dichloro-phenyl)-5-(4-ethoxy-phenyl)-4,5-dihydro-1H-pyrazol-3-ylmethyl]-2-fluoro-benzenesulfonafonamide]
23 | 5.5 nM | 2.3 nM | Cc1ccc([N+](=O)[O-])cc1S(=O)(=O)NCC1=NN(c2ccc(Cl)cc2Cl)C(c2ccc(Cl)cc2)C1 (stereo not shown) [Example 142, N-[5-(4-Chloro-phenyl)-1-(2,4-dichloro-phenyl)-4,5-dihydro-1H-pyrazol-3-ylmethyl]-2-methyl-5-nitro-benzenesulfonamide]
